Laboratory results taken from patent US10154990B2, “Medicaments for the treatment or prevention of fibrotic diseases” (Boehringer Ingelheim International GmbH, priority 2004, dated 2018).

Legend:
[1] = test system: Bleomycin-induced Pulmonary Fibrosis; assay: Lung morphology following bleomycin-induced pulmonary fibrosis (histology, Masson's Trichrome); assay type: in vivo, Male Wistar rats; conditions: bleomycin-treated rats (10 U/kg intratracheal), daily oral treatment with 50 mg/kg, days 1-21, lungs removed 21 days after instillation
Experimental: (A) Effect of a Representative Compound on Lung Morphology Following Bleomycin-induced Pulmonary Fibrosis. Bleomycin sulfate (Bleomycin […]) was purchased from a local pharmacy. All experiments were performed in accordance with German guidelines for animal welfare, performed by persons certified to work with animals and approved by the responsible authorities. Male Wistar rats were intratracheally injected with Bleomycin sulfate (10U/kg body weight in 300 μl saline) or saline alone (saline control) using a catheter (0.5 mm internal diameter, 1.0 mm external diameter) through the nasal passage, following exposure to the anaesthetic Isofluorane for 5 minutes. The following day, the rats were orally treated with Example A (compound (m)) or saline suspended in 1 ml 0.1% Natrosol. Control rats were administered 1 ml 0.1% Natrosol (vehicle control). [table] 21 days following bleomycin instillation, the rats were killed with a lethal intraperitoneal injection of NarcorenTM (Pentobarbital Sodium, Rhone Merieux). The lungs were then removed, blotted dry and half was snap frozen in liquid nitrogen and stored at -80° C. The other half was fixed in 4% formalin for subsequent paraffin embedding and histology. […] Collagen deposition was assessed using Masson's Trichrome staining. […]

fibrotic marker genes = assay: Expression of fibrotic marker genes in lung following bleomycin-induced pulmonary fibrosis (real time PCR); assay type: in vivo, Male Wistar rats; conditions: bleomycin-treated rats, daily 50 mg/kg, days 1-21, real time PCR normalized to 18S
Experimental: (B) Effect of a Representative Compound on Expression of Fibrotic Marker Genes Following Bleomycin-induced Pulmonary Fibrosis.
One part of the frozen lung tissue dedicated to investigation of gene expression was cut into small pieces using a sterile scalpel blade. Approximately 100 mg of tissue was then placed into a 2 ml Eppendorf tube and 1.5 ml of Trizol (Invitrogen) was added. A sterile tungsten carbide bead (Qiagen) was then added to the tube and the tube was placed in a Retsch MM300 Tissue disruptor (Qiagen) at a frequency of 30.0 Hz for 8 minutes. After this time, the bead was removed and the sample centrifuged at 12000 rpm for 10 minutes to remove tissue debris. The RNA was extracted using a modified version of the manufacturer's protocol supplied with Trizol. […] The concentration of each sample was then measured using a spectrophotometer. […]
Real Time PCR was carried out in 25 μl reactions, using 25 ng (5 μl) of cDNA per reaction. A quantitative PCR core kit was purchased (Eurogentec) and a master-mix was made up as follows for 100 reactions: 500 μl 10× reaction buffer, 500 μl MgCl2 (50 mM), 200 μl dNTP mix solution (5 mM), 25 μl Hot Goldstar enzyme, 75 μl 18S PDAR, 22.5 μl forward primer, 22.5 μl reverse primer, 15 μl probe and […] DEPC treated water. […]
In order to quantify the gene expression, a standard curve was constructed for each primer set and was included on each plate. […]

| SMILES | lung fibrosis (lung morphology, collagen deposition by Masson's Trichrome staining) [1] | expression of fibrotic marker genes (procollagen I, fibronectin) in the lung (fibrotic marker genes; FIGS. 2 and 3, vs bleomycin + vehicle) | expression of fibrotic marker genes (procollagen I, TGFb) in the lung (fibrotic marker genes; FIGS. 5 and 6, vs bleomycin + vehicle) |
| --- | --- | --- | --- |
| COC(=O)c1ccc2c(c1)NC(=O)/C2=C(\Nc1ccc(N(C)C(=O)CN(C)C)cc1)c1ccccc1 [Compound (m), 3-Z-[1-(4-(N-dimethylaminomethylcarbonyl-N-methyl-amino)-anilino)-1-phenyl-methylene]-6-methoxycarbonyl-indolinone] | consistent, nearly complete reversal of lung fibrosis | significant (p≤0.0001) inhibition | – |
| COC(=O)c1ccc2c(c1)NC(=O)/C2=C(\Nc1ccc(N(C)C(=O)CN2CCN(C)CC2)cc1)c1ccccc1 [Compound (u), 3-Z-[1-(4-(N-((4-methyl-piperazin-1-yl)-methylcarbonyl)-N-methyl-amino)-anilino)-1-phenyl-methylene]-6-methoxycarbonyl-2-indolinone] | consistent, nearly complete reversal of lung fibrosis | – | significant (p≤0.0001) inhibition |
